Test results: patent US20250034089A1, “TETRAHYDROCARBAZOLE COMPOUND, AND PHARMACEUTICAL COMPOSITION AND USE THEREOF” (NAIN BIOTECH (HANGZHOU) CO., LTD., priority 2021, published 2025)

tested on: HeLa (human cervical cancer cells); assay: In vitro proliferation inhibition (CCK-8), HeLa; assay type: cell-based; conditions: Homo sapiens, 72 h, CCK-8, average of three wells in one test
Source text: (§1) • 1) Cell sources: HeLa (human cervical cancer cells), CaSki (human cervical cancer intestinal metastasis cells), Huh7 (human liver cancer cells), HepG2 (human liver cancer cells), Hep3B (human liver cancer cells) were purchased from the Chinese Academy of Sciences cell bank (Shanghai); LO2 (human normal liver cells) and HcerEpic (human normal uterine epithelial cells) were from ATCC. • 2) Cell culture and passage: The cell culture and passage method is the same as that described in “The inhibitory effect of compounds on the OCT4 protein in tumor stem cells (CSC)”. • 3) Cell dosing treatment: The each type of cells mentioned above was digested, counted, and inoculated in each well of the 96 well cell culture plate (#3988, Corning) at a density of 5000 cells/200 μl culture medium. They were cultured in a cell culture incubator at 37° C. and 5% CO2 for 24 hours to allow the cells to fully adherent to the wall. Then, the original culture medium was replaced with complete culture medium containing gradient diluted KZT-A5 (each concentration with 3 repeated wells) as well as DMSO (#D5879, Sigma Aldrich) solvent control, and they are cultured for additional 72 hours. • 4) Pharmacodynamic test and statistics: First, the morphology of cells treated with the above compounds was observed, photographed and recorded using an inverted phase contrast microscope (X71, Olympus). Then the original culture medium was replaced with phenol red free culture medium containing CCK-8 detection reagent (#E606335, Shanghai Shenggong) respectively, and they are cultured in the incubator for additional 2 hours. Then the OD450 nm absorbance value (OD value) was measured on a multifunctional enzyme-linked immunosorbent assay (168-1130, Bio Rad). After the cells were treated with the test compound, the equations for calculating the cell survival rate or cell growth rate is: survival rate=GD value of the treated group/OD value of the control group×100%; the equations for calculating the growth inhibition rate of compounds on cell proliferation is: inhibition rate=(OD value of control group−OD value of the treated group)/OD value of control group×100%. Further, the IC50 of each compound was calculated in SPSS based on the inhibition rate.
(§2) • 1) Cell sources: Huh7 (human liver cancer cells), HepG2 (human liver cancer cells), Hep3B (human liver cancer cells), and HeLa (human cervical cancer cells) were all purchased from the Chinese Academy of Sciences cell bank (Shanghai), while LO2 (human normal liver cells) was obtained from ATCC. • 2) Cell culture and passage: The cell culture and passage method is the same as that described in “The inhibitory effect of compounds on human tumor cell lines from different tissue sources (1)”. • 3) Cell dosing treatment: The cell dosing treatment method is the same as that described in “The inhibitory effect of compounds on human tumor cell lines from different tissue sources (1). • 4) Pharmacodynamic test and statistics: The pharmacodynamic test and statistics method is the same as that described in “The inhibitory effect of compounds on human tumor cell lines from different tissue sources (1)”. The IC50 value data of the compound on each type of tumor cells is the average±standard deviation of three wells in one test.

Row | Compound | IC50
1 | COC(=O)c1ccc2[nH]c3c(c2c1)CC/C(=C\c1ccc(O)c(OC)c1)C3=O [Compound 21] | < 50 µM
2 | COc1cc(/C=C2\CCc3c([nH]c4c(Cl)cc(Cl)cc34)C2=O)ccc1O [Compound 32] | < 50 µM
3 | COc1cc(CC2CCc3c([nH]c4ccc(C)cc34)C2=O)ccc1O (stereo not drawn) [Compound 8] | < 50 µM
4 | COc1cc(/C=C2\CCc3c([nH]c4ccc(Br)cc34)C2=O)ccc1O [Compound 19] | < 50 µM
5 | C#Cc1ccc2[nH]c3c(c2c1)CC/C(=C\c1ccc(O)c(OC)c1)C3=O [Compound 25] | < 50 µM
6 | COc1cc(/C=C2\CCc3c([nH]c4ccc(N5CCNCC5)cc34)C2=O)ccc1O [Compound 23] | < 50 µM
7 | COC(=O)c1ccc2[nH]c3c(c2n1)CC/C(=C\c1ccc(O)c(OC)c1)C3=O [Compound 28] | < 50 µM
8 | COc1cc(/C=C2\CCc3c([nH]c4ccc(C#N)cc34)C2=O)ccc1O [Compound 20] | < 50 µM
9 | Cc1ccc2[nH]c3c(c2c1)CC/C(=C\c1ccnc2[nH]ccc12)C3=O [Compound 16] | < 50 µM
10 | Cc1ccc2[nH]c3c(c2c1)CC/C(=C\c1c[nH]c2ncccc12)C3=O [Compound 14] | < 50 µM
11 | COc1cc(/C=C2\CCc3c([nH]c4ccc(F)cc34)C2=O)ccc1O [Compound 27] | < 50 µM
12 | COc1cc(/C=C2\CCc3c([nH]c4ccc(-c5cn[nH]c5)cc34)C2=O)ccc1O [Compound 24] | < 50 µM
13 | COc1cc(/C=C2\CCc3c([nH]c4cc(OC)c(OC)cc34)C2=O)ccc1O [Compound 31] | < 50 µM
14 | COc1cc(/C=C2\CCc3c([nH]c4ccc(N5CCC(O)CC5)cc34)C2=O)ccc1O [Compound 22] | < 50 µM
15 | COc1ccc2[nH]c3c(c2n1)CC/C(=C\c1ccc(O)c(OC)c1)C3=O [Compound 33] | < 50 µM

same assay, conditions: Homo sapiens, 72 hours, CCK-8, average of three wells in one test

Row | Compound | IC50
16 | COc1cc(/C=C2\Cc3c([nH]c4ccc(C)cc34)C2=O)ccc1O [Compound 35] | < 50 µM
17 | COc1cc(/C=C2\CCCc3c([nH]c4ccc(C)cc34)C2=O)ccc1O [Compound 37] | < 50 µM
18 | COc1cc(/C=C2\CCc3c([nH]c4ccc(C)cc34)C2=O)cc(OC)c1OC [Compound 38] | < 50 µM
19 | COc1cc(/C=C2\CC(C)(C)c3c([nH]c4ccc(C)cc34)C2=O)ccc1O [Compound 34] | < 50 µM
20 | COc1cc(/C=C2\CSc3c([nH]c4ccc(C)cc34)C2=O)ccc1O [Compound 36] | < 50 µM
21 | COc1ccc2[nH]c3c(c2c1)CC/C(=C\c1ccc(O)c(OC)c1)C3=O [Compound 18] | < 50 µM

same assay, conditions: Homo sapiens, test (2), average±standard deviation of three wells

Row | Compound | IC50
22 | CCC(CO)/N=C1\CCCc2c1[nH]c1ccc(C)cc21 (stereo not drawn) [AH057, reference compound] | 0.63 ± 0.03 µM

tested on: Huh7 (human liver cancer cells); assay: In vitro proliferation inhibition (CCK-8), Huh7; assay type: cell-based; conditions: Homo sapiens, Huh-7, Huh7, test (2), average±standard deviation of three wells
Source text: as §1, §2

Row | Compound | IC50
23 | CCC(CO)/N=C1\CCCc2c1[nH]c1ccc(C)cc21 (stereo not drawn) [AH057, reference compound] | 44.2 ± 1.61 µM

tested on: HepG2 (human liver cancer cells); assay: In vitro proliferation inhibition (CCK-8), HepG2; assay type: cell-based; conditions: Homo sapiens; HepG2, test (2), average±standard deviation of three wells
Source text: (§3) • 1) Cell sources: HeLa (human cervical cancer cells), CaSki (human cervical cancer intestinal metastasis cells), Huh7 (human liver cancer cells), HepG2 (human liver cancer cells), Hep3B (human liver cancer cells) were purchased from the Chinese Academy of Sciences cell bank (Shanghai); LO2 (human normal liver cells) and HcerEpic (human normal uterine epithelial cells) were from ATCC. • 2) Cell culture and passage: The cell culture and passage method is the same as that described in “The inhibitory effect of compounds on the OCT4 protein in tumor stem cells (CSC)”. • 3) Cell dosing treatment: The each type of cells mentioned above was digested, counted, and inoculated in each well of the 96 well cell culture plate (#3988, Corning) at a density of 5000 cells/200 μl culture medium. They were cultured in a cell culture incubator at 37° C. and 5% CO2 for 24 hours to allow the cells to fully adherent to the wall. Then, the original culture medium was replaced with complete culture medium containing gradient diluted KZT-A5 (each concentration with 3 repeated wells) as well as DMSO (#D5879, Sigma Aldrich) solvent control, and they are cultured for additional 72 hours. • 4) Pharmacodynamic test and statistics: First, the morphology of cells treated with the above compounds was observed, photographed and recorded using an inverted phase contrast microscope (X71, Olympus). Then the original culture medium was replaced with phenol red free culture medium containing CCK-8 detection reagent (#E606335, Shanghai Shenggong) respectively, and they are cultured in the incubator for additional 2 hours. Then the OD450 nm absorbance value (OD value) was measured on a multifunctional enzyme-linked immunosorbent assay (168-1130, Bio Rad). After the cells were treated with the test compound, the equations for calculating the cell survival rate or cell growth rate is: survival rate=GD value of the treated group/OD value of the control group×100%; the equations for calculating the growth inhibition rate of compounds on cell proliferation is: inhibition rate=(OD value of control group−OD value of the treated group)/OD value of control group×100%. Further, the IC50 of each compound was calculated in SPSS based on the inhibition rate. […]

Row | Compound | IC50
24 | CCC(CO)/N=C1\CCCc2c1[nH]c1ccc(C)cc21 (stereo not drawn) [AH057, reference compound] | 40.02 ± 0.08 µM

tested on: Hep3B (human liver cancer cells); assay: In vitro proliferation inhibition (CCK-8), Hep3B; assay type: cell-based; conditions: Homo sapiens, test (2), average±standard deviation of three wells
Source text: as §3

Row | Compound | IC50
25 | CCC(CO)/N=C1\CCCc2c1[nH]c1ccc(C)cc21 (stereo not drawn) [AH057, reference compound] | 18 ± 1.2 µM

tested on: LO2 (human normal liver cells); assay: In vitro proliferation inhibition (CCK-8), LO2; assay type: cell-based; conditions: LO2, test (2), average±standard deviation of three wells
Source text: • 1) Cell sources: HeLa (human cervical cancer cells), CaSki (human cervical cancer intestinal metastasis cells), Huh7 (human liver cancer cells), HepG2 (human liver cancer cells), Hep3B (human liver cancer cells) were purchased from the Chinese Academy of Sciences cell bank (Shanghai); LO2 (human normal liver cells) and HcerEpic (human normal uterine epithelial cells) were from ATCC. • 2) Cell culture and passage: The cell culture and passage method is the same as that described in “The inhibitory effect of compounds on the OCT4 protein in tumor stem cells (CSC)”. • 3) Cell dosing treatment: The each type of cells mentioned above was digested, counted, and inoculated in each well of the 96 well cell culture plate (#3988, Corning) at a density of 5000 cells/200 μl culture medium. They were cultured in a cell culture incubator at 37° C. and 5% CO2 for 24 hours to allow the cells to fully adherent to the wall. Then, the original culture medium was replaced with complete culture medium containing gradient diluted KZT-A5 (each concentration with 3 repeated wells) as well as DMSO (#D5879, Sigma Aldrich) solvent control, and they are cultured for additional 72 hours. • 4) Pharmacodynamic test and statistics: First, the morphology of cells treated with the above compounds was observed, photographed and recorded using an inverted phase contrast microscope (X71, Olympus). Then the original culture medium was replaced with phenol red free culture medium containing CCK-8 detection reagent (#E606335, Shanghai Shenggong) respectively, and they are cultured in the incubator for additional 2 hours. Then the OD450 nm absorbance value (OD value) was measured on a multifunctional enzyme-linked immunosorbent assay (168-1130, Bio Rad). […] Further, the IC50 of each compound was calculated in SPSS based on the inhibition rate. […]

Row | Compound | IC50
26 | CCC(CO)/N=C1\CCCc2c1[nH]c1ccc(C)cc21 (stereo not drawn) [AH057, reference compound] | 85.5 ± 2.92 µM

tested on: HeLa cells; assay: Clone formation of HeLa cells, single drugs and combination; assay type: cell-based, human; conditions: 700 nM KZT-A5, 100 nM SGI-1027, two weeks, compared with DMSO control, FIG. 7
Source text: • 1) Cell source: HeLa cells were purchased from the Chinese Academy of Sciences Cell Bank (Shanghai). • 2) Cell culture and passage: The cell culture and passage method is the same as that described in “Inhibition of OCT4 protein in tumor stem cells (CSCs) by compounds”. • 3) Cell dosing treatment: The cells were inoculated into a 6-well plate containing the aforementioned culture medium at a density of 200 cells per well. They were divided into four groups, and DMSO (as blank control group), 700 nM KZT-A5 (as KZT-A5 single drug group), 100 nM SGI-1027 (as SGI-1027 single drug group), and 700 nM KZT-A5+100 nM SGI-1027 (as combination group) was added respectively. After two weeks, they were photographed, and the number of clones was counted in each group respectively.

Row | Compound | inhibition of clone formation
27 | Cc1cc(Nc2ccc(NC(=O)c3ccc(Nc4ccnc5ccccc45)cc3)cc2)nc(N)n1 [SGI-1027, reference compound] | only slightly inhibits clone formation
